Test results reported in patent US6867186B2, “Cell-permeable protein inhibitors of calpain” (New England Medical Center Hospital, priority 1997, dated 2005).
Read-outs that look alike come from different tables or passages of the source.

Experiments:
platelets [1] = test: cells; format: cell-based; set-up: reduction in spreading on the glass surface: dose or concentration left out as unconfirmed
Description: Platelet activation on surfaces can be inhibited by […] or […] fusion proteins. […] The cellular area of spread platelets was determined by computer assisted image analysis using NIH Image 1.61. […] Percent inhibition of spreading was calculated from the increase in mean cell area for untreated and treated samples vs. unspread DMSO controls.

gel filtered platelets = test: Thrombin-induced platelet aggregation (aggregometer); format: cell-based, human; details: for effect on platelet aggregation: thrombin or SFLLR induced
Description: In one series of experiments, platelets were purified from […] on a SEPHAROSE 2B column in PIPES buffered saline containing glucose, pre-incubated with 45 μM calpastat or S-TIPPEY-ala for 30 minutes at 37° C., and placed in a cuvette in a BIODATA aggregometer. The aggregometer measures turbidity of the solution by nephlometry (light scatter). Aggregation was induced with thrombin (0.1 to 1 unit/ml) or the thrombin receptor agonist peptide SFLLR (SEQ ID NO:5). […] In contrast, S-TIPPEY-ala had no activity. A version of S-TIPPEYIN lacking the signal sequence similarly had no activity.
In another series of experiments, gel filtered platelets were obtained and tested as follows. Blood from healthy, aspirin-free volunteers was collected by venipuncture into 4% sodium citrate (9:1 v/v, final concentration 0.4%) and centrifuged at 200×g for 20 minutes to obtain platelet rich plasma (PRP). Following incubation with apyrase (4 units/ml for 5 minutes at room temperature), platelets were purified from PRP by gel-filtration at room temperature using a Sepharose 2B column equilibrated in PIPES buffer (25 mM PIPES pH 6.8, 140 mM NaCl, 4 mM KCl, and 0.1% glucose) (Hsu-Lin, et al., J. Biol. Chem. 259:9121-9126, 1984). Final gel filtered platelet concentrations were about 1.5×10^8 cells/ml.
Gel filtered platelets (250 μl aliquots at 1.6×10^8/ml) were incubated with the indicated concentration of calpastat or mutant calpastat-ala for either 20 or 30 minutes at 37° C. in the absence of calcium and stirring. To test peptidyl calpain inhibitors, platelets were preincubated with the indicated concentration of calpeptin, MDL, E64d, DMSO (vehicle control) or NH4Cl (cathepsin control) for 10 minutes at 37° C. Following incubation, platelets were recalcified (CaCl2, 2 mM) and stimulated with 0.05-1.0 unit/ml thrombin, while being stirred (1400 rpm) at 37° C. The sensitivity of platelet preparations to thrombin decreased over the course of a given experiment. The thrombin concentration used was to elicit robust aggregation and varied between 0.05 and 1.0 U/ml. Aggregation was measured using a Bio-Data lumi-aggregometer. Percent inhibition of aggregation was measured at 4 minutes following the onset of aggregation. The initial rate of aggregation during the first 15 seconds for treated vs. untreated samples was used to calculate the IC50 for each inhibitor.

platelets [2] = test: cells; set-up: increase in P-selectin surface expression over unstimulated: dose or concentration left out as unconfirmed
Description: To determine whether S-TIPPEYIN could inhibit α-granule secretion in platelets, surface expression of P-selectin, which indicates α-granule secretion, was induced with the thrombin peptide SFLLR (SEQ ID NO:5) and analyzed by flow cytometry using an antibody against P-selectin. Blood from healthy volunteers was collected into sodium citrate (4% w/v) and centrifuged at 200×g for 10 minutes to prepare platelet-rich plasma (PRP), from which platelets were subsequently purified by gel filtration using a SEPHAROSE 2B column in PIPES buffer. Twenty μl of platelets (approximately 2×10^8 platelets/ml) were aliquoted into eppendorf tubes and one μl of S-TIPPEYIN, TIPPEYIN (lacking the signal peptide sequence), or S-TIPPEY-ala was added to achieve final concentrations of 6.25, 12.5, 25, 50, or 100 μM. The platelets were then incubated for 2 hours at 37° C. and subsequently exposed to either 1 μl PBS (unstimulated) or 1 μl of SFLLR (SEQ ID NO:5; stimulated) at the indicated concentration. After 30 seconds, a 7.5 μl aliquot was transferred to an eppendorf tube containing non-immune serum having antibodies that were conjugated to phycoerythrin. Following a 20 minute incubation at room temperature, the mixture was diluted with 1 ml of 2% paraformaldehyde and incubated at 4° C. for two hours. Antibody binding to platelet surface P-selectin was quantified using a FACSCAN flow cytometer (Becton Dickerson, San Jose, Calif.). Results were reported as the geometric mean of the relative fluorescence.
Platelets were pre-incubated with increasing concentrations of calpeptin, MDL, E64d, or DMSO (vehicle control) for ten minutes prior to stimulation with SFLLR.

Substance	effect on platelet spreading (platelets [1]; spreading on glass)	IC50 (platelets [1]; spreading on glass, NI=no inhibition, read-out: IC50, inhibition of platelet spreading) [µM]	IC50 (gel filtered platelets; initial rate during first 15 seconds, NI=no inhibition, peptidyl inhibitors 10 min pre-incubation, read-out: IC50, initial rate of thrombin-induced platelet aggregation) [µM]	effect on platelet aggregation (gel filtered platelets)	effect on platelet aggregation (gel filtered platelets; listed as S-TIPPEY-ala)	effect on SFLLR-induced P-selectin surface expression (platelets [2]; pre-incubation, SFLLR stimulation)	IC50 (platelets [1]) [µM]	inhibition of platelet spreading relative to calpastat-ala control (platelets [1]; 100 μM, 30 minutes pre-incubation) [%]	inhibition of platelet spreading relative to calpastat-ala control (platelets [1]; 100 μM, 60 minutes pre-incubation) [%]	platelets round and unspread on glass (platelets [1]; 100 μM, 1.5 hours)	inhibition of platelet spreading relative to calpastat-ala control (platelets [1]; 100 μM, 90 minutes pre-incubation) [%]	reduction in spreading on the glass surface (platelets [1]; 90 minutes at 37° C.) [%]	concentration of maximal inhibition of platelet aggregation (gel filtered platelets; 30 minutes pre-incubation at 37° C.) [µM]	IC50 (gel filtered platelets; no unit printed, read-out: IC50 of calpastat, initial rate of thrombin-induced aggregation) [µM]	IC50 (platelets [2]) [µM]	P-selectin surface expression induced by ionophore A23187 (platelets [2]; A23187)	maximal inhibition of P-selectin surface expression (platelets [2]; FIG. 3, SFLLR) [µM]	increase in P-selectin surface expression over unstimulated (platelets [2]; SFLLR alone approximately 10-fold) [fold]	IC50 (platelets [2]; read-out: half-maximal inhibition of P-selectin surface expression, FIG. 3, SFLLR) [µM]
AAVALLPAVLLALLAPEKLAERADAAAPEAAELLEKKTGV [Calpastat-ala]	minimal inhibition	> 100	> 50	no measurable effect	no activity	no effect													
H-AAVALLPAVLLALLAPEKLGERDDTIPPEYRELLEKKTGV-OH [Calpastat]				inhibited platelet aggregation and secretion			35	0	46	Half	80	70	45	50	30	inhibited	40 to 60	5	15 to 20
